Results as given in article PMC11227536, “Modulation of the Meisenheimer complex metabolism of nitro-benzothiazinones by targeted C-6 substitution” (Communications Chemistry, 2024).

Legend:
K-562 = experiment: Proliferation assay; format: cell-based; conditions: Homo sapiens, K562; 72 h, n = 4
Protocol: Supplementary Method 5: Biological Assays […]
2. Proliferation and cytotoxicity assay
Cells and culture conditions
The following cell lines and media were used:
Cell line Cell culture medium
Cells were grown in the appropriate cell culture medium supplemented with 10 mL/L ultraglutamine 1 […]
heat inactivated fetal bovine serum (GIBCO Life Technologies 10270-106) at 37 °C in 5% CO 2 in high density polyethylene flasks (NUNC 156340).
To decide if the compounds have an antiproliferative and/or a cytotoxic effect on human cells, cell death and retardation of cell proliferation were assessed. Under our experimental conditions, the optical density measured from the CellTiter-Blue® reagent and methylene blue assay is proportional to the […]
The test substances were dissolved in DMSO and further diluted in the cell culture medium. The adherent cells were harvested at the logarithmic growth phase after soft trypsinization using 0.25% trypsin in PBS containing 0.02% EDTA (Biochrom KG L2163). For each experiment, approximately 10,000 cells were seeded with 0.1 mL culture medium per well of the 96-well microplates (HUVEC: flat bottomed NUNC 167008, K-562: round bottomed NUNC 163320). To test the antiproliferative […]
effect of test compounds on HUVEC and K-562, the cells were incubated for 72 hours in plates prepared with control and different dilutions of test substances. […]
of proliferation compared to the untreated control. […]
Cells were incubated with dilutions of the test substances in microplates for 72 hours at 37 °C in a humidified atmosphere and 5% CO 2. […]
cytotoxicity and the inhibition of cell proliferation. The number of viable cells was determined subsequent to staining with CellTiter-Blue® reagent or methylene blue.
K-562 cells: The influence of test substances on cell proliferation of K-562 was determined via the CellTiter-Blue® assay (PROMEGA). Briefly, viable cells are able to reduce the indicator dye resazurin […]
dye. Thus, formation of resorufin was followed by measuring absorption at 570 nm and subtracting absorption measured at 600 nm. […]
General remarks: Signals from the methylene blue and CellTiter-Blue® reagent are proportional to the number of viable cells. A repeat determination has been conducted in all experiments, four replicates were assayed. The calculations of the different values of GI 50 and CC 50 were performed with the software

[1] = Microsomal stability assay; format: in vitro ADME, human; conditions: pH 7.4; for CLint scaled at 1 µM: liver microsomes, scaled: 52.5 mg protein/g liver, 22.0 g liver/kg, human; for half-life at 1 µM: human liver microsomes, 37 °C
Protocol: (§1) 4. Microsomal stability assay
(§2) A microsomal stability assay was performed according to an internal standard procedure. Positive control compound diclofenac and three test items were freshly prepared as sub-dilutions in phosphate buffer (100 mM, pH 7.4) at concentrations of 200 µM and 20 µM, respectively. All incubations were conducted in triplicate in glass screw neck vials (1.5 mL, flat bottom, Macherey-Nagel, Düren, Germany) on a Thermomixer C (Eppendorf, Germany) at 37 °C and 1500 rpm. The incubation mixtures contained 270 µL human liver microsomes (HLM, 1.1 mg∙mL -1, UltraPool HLM 150, Corning B.V.
(§3) Life Science, Amsterdam, the Netherlands), 270 µL NADP regeneration mix (1 mM NADP, 5 mM glucose-6-phosphate, 5 units∙mL -1 glucose-6-phosphate dehydrogenase and 5 mM MgCl 2) and 30 µL phosphate buffer to reach a total volume of 570 µL. Negative controls were performed with heat inactivated (80 °C, 30 min) HLM solution. Reactions were initiated by addition of diclofenac or the test item solution (30 µL). Aliquots of 100 µL were taken at 1, 15, 30, 60, and 90 minutes and immediately processed with 100 µL acetonitrile at 4°C to terminate the reactions, and shaken for 2 minutes at 4°C with 1600 rpm. The mixed samples were further centrifuged for 2 minutes at 4 °C with 16.1 krcf. The supernatants were withdrawn and subjected to high resolution mass spectrometry analysis without […]
(§4) Analysis of microsomal stability assay
(§5) Samples were analyzed using a Vanquish Horizon UHPLC system (Thermo Fisher Scientific, Bremen, Germany) coupled to a Thermo Scientific QExactive HF-X Orbitrap mass spectrometer (Thermo Fisher Scientific, Bremen, Germany) using a UPLC column (ACQUITY HSS T3, Waters, 1.8 µm particle size, 2.1 × 50 mm dimensions) equipped with a pre-column (ACQUITY HSS T3 VanGuard Pre-column, Waters, 1.8 µm particle size, 2.1 × 5 mm dimensions). The column temperature was maintained at 25°C, and the samples were kept at 4°C. The UHPLC system was operated at a flow rate of 0.6 mL/min and an injection volume of 5 µL. Mobile phases consisted of 0.1% (v/v) formic acid in water (Eluent A) and 0.1% (v/v) formic acid in acetonitrile (Eluent B). Chromatographic separation was obtained as follows:
(§6) 0 to 4 min: a linear from 5 to 98% of Eluent B; 4 to 6.5 min: isocratic at 98% B; 6.5 to 7 min: linear from 98 to 5% B; 7 to 9 min: isocratic at 5% B. The high-resolution mass spectra were acquired with electrospray ionization at both positive and negative modes. A scan range of m/z 120 to 1800 was chosen, and the maximum injection time was set to 200 ms. Ion source parameters were: spray voltage 3.5 kV, capillary temperature 320°C, RF level 40, sheath gas pressure 50 (N 2 > 95%), auxiliary gas 10 (N2 > 95%), auxiliary gas heater temperature 300°C. The value for the automatic gain control (AGC) target was set to 10 6, resolution was 60000, and chromatographic peak width (FWHM) was 15 s.
(§7) Calculation of the results from microsomal stability assay
(§8) Elimination rate constant (k) = (- gradient)
(§9) Half-life (t ) (min) = ௟௡
(§10) V (µL∙mg -1) = ௩௢௟௨௠௘ ௢௙ ௜௡௖௨௕௔௧௜௢௡ (µ௅) […]
(§11) Intrinsic clearance in liver microsomes (Cl ) (µL∙min∙mL -1protein) = ௏ × ௟௡ଶ […]
(§12) Intrinsic clearance (Cl ) (mL∙min -1∙kg -1) = ௟௡ × ௏ × ௠௚ ௠௜௖௥௢௦௢௠௔௟ ௣௥௢௧௘௜௡ × ௚ ௟௜௩௘௥ int ௧భ/మ ଵ଴଴଴ ௚ ௟௜௩௘௥ ௪௘௜௚௛௧ ௞௚ ௕௢ௗ௬ ௪௘௜௚௛௧
(§13) (52.5 mg protein∙ g -1 liver used for human; 22.0 g∙ kg -1 liver to body weight used for human) Hepatic extraction ratio (E ) = ୤౫ × େ୪౟౤౪
(§14) (fu: fraction of drug unbound in plasma, f u = 1 used for the calculation; Q: hepatic blood flow, 20.0 mL∙min-1∙kg -1 for human).

human liver microsomes = experiment: Microsomal stability assay; format: in vitro ADME; conditions: for Eh (hepatic extraction ratio): fu = 1, Q = 20.0 mL∙min-1∙kg-1, human; for Clint,micro: human liver microsomes
Protocol: as §1, §2, §3, §4, §5, §6, §7, §8, §9, §10, §11, §12, §13, §14

Row | Compound | GI50 (K-562) [µM] | CLint scaled at 1 µM [1] [mL/min/kg] | half-life at 1 µM [1] [h] | Eh (hepatic extraction ratio) (human liver microsomes) [%] | Clint,micro (human liver microsomes) [µl.min-1-mg-1 protein]
1 | COC(=O)c1cc([N+](=O)[O-])c2sc(N3CCC4(CC3)OC[C@H](C)O4)nc(=O)c2c1 [Compound 6a] | 66.9 ± 12.6 | 363 | 0.0742 | 94.8 | 314.7
2 | CC(C)OC(=O)c1cc([N+](=O)[O-])c2sc(N3CCC4(CC3)OC[C@H](C)O4)nc(=O)c2c1 [Compound 6c] | > 111 | 61.1 | 0.441 | 75.3 | 52.9
3 | C[C@H]1COC2(CCN(c3nc(=O)c4cc(C(=O)N(C)C)cc([N+](=O)[O-])c4s3)CC2)O1 [Compound 7c] | > 115 | 3 | 8.89 | 13 | 2.6
4 | CON(C)C(=O)c1cc([N+](=O)[O-])c2sc(N3CCC4(CC3)OC[C@H](C)O4)nc(=O)c2c1 [Compound 7f] | > 111 | 11 | 2.46 | 35.5 | 9.5
5 | C[C@H]1COC2(CCN(c3nc(=O)c4cc(C(=O)O)cc([N+](=O)[O-])c4s3)CC2)O1 [Compound 8] | > 123 |  |  |  | 
6 | C[C@H]1COC2(CCN(c3nc(=O)c4cc(C#N)cc([N+](=O)[O-])c4s3)CC2)O1 [Compound 9] | 94.4 ± 5.9 | 15.4 | 1.75 | 43.5 | 13.3
7 | C[C@H]1COC2(CCN(c3nc(=O)c4cc(I)cc([N+](=O)[O-])c4s3)CC2)O1 [Compound 10] | > 102 | 19.1 | 1.41 | 48.8 | 16.1
8 | C[C@H]1COC2(CCN(c3nc(=O)c4cc(Br)cc([N+](=O)[O-])c4s3)CC2)O1 [Compound 11] | > 113 | 18.4 | 1.46 | 47.9 | 16
9 | C[C@H]1COC2(CCN(c3nc(=O)c4cccc([N+](=O)[O-])c4s3)CC2)O1 [Compound 23] | > 138 | 5.8 | 4.62 | 22.5 | 5.1
